Experimental data as given in ChEMBL document CHEMBL1833933, “Relationship between the structures of flavonoids and their NF-κB-dependent transcriptional activities” (Bioorg Med Chem Lett, 2011).
The source made the active and inactive calls. The rule behind the calls is not given here.

How the values were obtained:
Type in all cases: cell-based
HCT-116 [1] = assay: Inhibition of NF-kappaB activation expressed in HCT116 cells assessed as inhibition of TNF-alpha-induced transcriptional activation at 10 uM after 12 hrs by luciferase reporter gene assay relative to control; conditions: values are per cent of control
HCT-116 [2] = assay: Inhibition of TNF-alpha-induced NF-kappaB activation expressed in HCT116 cells assessed as reduction of IkappaB phosphorylation at Ser32 at 20 uM treated 30 mins before TNFalpha challenge by Western blot analysis
HCT-116 [3] = assay: Inhibition of TNF-alpha-induced NF-kappaB activation expressed in HCT116 cells assessed as reduction of RelA phosphorylation at Ser536 at 20 uM treated 30 mins before TNFalpha challenge by immunofluorescence microscopic analysis

Structure (SMILES)	residual activity (HCT-116 [1])	further results
COc1cc(O)c2c(=O)c(-c3ccc(O)cc3)coc2c1	105%	–
COc1ccc(-c2cc(=O)c3c(OC)cc(OC)cc3o2)cc1	89.9%	–
O=c1cc(-c2ccccc2)oc2ccccc12	113%	–
O=c1cc(-c2ccccc2)oc2ccc3ccccc3c12	150%	–
O=c1cc(-c2cccc(O)c2O)oc2ccccc12	109%	–
COc1cc(OC)c2c(c1)OC(c1ccccc1)CC2=O (stereo not drawn)	126%	–
COc1cccc2oc(-c3ccccc3)cc(=O)c12	63.9%	–
COc1cc(/C=C/C(=O)c2cc(OC)cc(OC)c2)cc(OC)c1	–	inhibition (HCT-116 [2]): Active; inhibition (HCT-116 [3]): Active
COc1ccc2c(c1)OC(c1cc(OC)c(OC)c(OC)c1)CC2=O (stereo not drawn)	99.8%	–
COc1cc(-c2oc3cc(O)cc(O)c3c(=O)c2O[C@@H]2O[C@H](CO)[C@@H](O)[C@H](O)[C@H]2O)ccc1O	115%	–
COc1ccc(/C=C/C(=O)c2ccc(OC)cc2O)cc1	83.1%	–
COc1ccc(-c2coc3cc(OC)cc(OC)c3c2=O)cc1	123%	–
O=C1C[C@@H](c2ccc(O)cc2)Oc2cc(O)cc(O)c21	135%	–
COc1cccc2c1C(=O)CC(c1ccccc1)O2 (stereo not drawn)	108%	–
COc1cccc(/C=C/C(=O)c2cc(OC)cc(OC)c2)c1	77.4%	–
O=c1cc(-c2ccccc2)oc2c1ccc1ccccc12	91.4%	–
COc1ccc2c(=O)c(-c3ccccc3)coc2c1	132%	–
COc1cccc(-c2cc(=O)c3ccccc3o2)c1OC	100%	–
Cc1c(-c2ccccc2)oc2c(C(=O)O)cccc2c1=O	143%	–
O=c1c(O)c(-c2ccc(O)c(O)c2)oc2c(O[C@@H]3O[C@H](CO)[C@@H](O)[C@H](O)[C@H]3O)c(O)cc(O)c12	99.1%	–
COc1cc(-c2cc(=O)c3ccccc3o2)ccc1O	105%	–
COc1cccc2oc(-c3ccc(O)cc3)cc(=O)c12	87.7%	–
COc1cc(OC)c2c(=O)cc(-c3ccc(OC)c(OC)c3)oc2c1	124%	–
O=c1cc(-c2cccc(O)c2)oc2cccc(O)c12	126%	–
COc1cc(/C=C/C(=O)c2ccccc2OC)cc(OC)c1	61.1%	–
O=c1cc(-c2ccccc2)oc2cccc(O)c12	116%	–
COc1ccccc1-c1cc(=O)c2ccc3ccccc3c2o1	65.1%	–
